# Data: patent publication US5338830A, “Biologically active peptide derived from chicken (chicken CNP)” (Suntory Limited, priority 1990, dated 1994)
# “Also recorded” adds a separate entry of the source. Read-outs that look alike come from different tables or passages of the source. Where a SMILES comes first, the peptide text is derived from it. Bridges are numbered along the chain shown (N, C = ends). Where no end group is shown, it is not given here.
# Columns and labels:
# chicken rectum = system: chicken rectum
# Method: Relaxant activity in chicken rectum was measured in accordance with the method of […] and Currie ([…]. and Matsuo, H., Biochem. Biophys. Res. Commun., 118, 131-139, 1984; Currie, […]., Cole, […]. and Needleman, P. Science, 221, 71-73, 1983). The values are averages of six repeats. […] Although cCNP lacked the tail sequence at the C-terminal which had been considered to be important for analog peptides in displaying biological activities such as diuretic action (Watanabe, T. X., Noda, Y., Chino […]. and Imai, M. Eur. J.
# Male SD rats [1] = experiment: Vasodepressor activity (change of blood pressure) in anesthetized rats; format: in vivo, rat
# Method: (§1) Diuretic action of cCNP was measured in accordance with the method described in […] et al and Sudoh et al ([…]. et al., Biochem. Biophys. Res. Commun., 118, 131-139, 1984; Sudoh, […]., Minamino, N. and Matsuo, H. Nature, 322, 78-81, 1988). Male SD rats (weight 300-400 g) were anesthetized by intraperitoneally receiving 50 mg/kg pentobarbitol, and a tracheal cannula (PE-240, Cray Adams) was provided to secure an airway. A cannula for measuring the blood pressure (PE-50) was inserted into one of the femoral arteries, and Ringer solution was injected through a cannula (PE-10) inserted into the femoral venous, at a constant rate of 1.8 ml/hr. Urine was collected into a test tube through a bladder cannula of silastic tube (inside diameter 0.02 inch, outside diameter 0.037 inch, Dow Corning). The collection of urine was carried out for 15 min before the administration of the peptides, at 5 min intervals after the administration till 15 min, and then at appropriate time intervals. The effect of the peptides was measured by comparing the amount of the urine samples and the concentration of the electrolyte in the urine samples, as well as by the change of the blood pressure. In the above assay, a predetermined amount of cCNP was dissolved in 0.1N acetic acid, and neutralized with one tenth volume of 1.3M Tris solution. Then, the solution was diluted with 50 μl of a sterile physiological water, and administered through the cervical vein. […] In Table 2, diuretic and natriuretic responses are shown in terms of the amount of the urine, the percentages in the […] of the excretion of Na^+, K^+ and Cl^- (Means±S.E.M.), in which urine samples were collected separately over 15 min before and after the intravenous injection of the peptides to anesthetized rats. Three to six rats were used for each peptide. […] In a typical experiment, the blood pressure at the contract phase of heart was decreased by about 5% over a period of 30 min by the action of 30 μg/kg of cCNP. […] Biochem. Biophys. Res. Commun., 168, 863-870, 1990).
# Male SD rats [2] = experiment: Diuretic and natriuretic action in anesthetized rats (urine amount, electrolyte excretion); format: in vivo, rat; conditions: for excretion Cl- / excretion K+ / excretion Na+ / excretion urine: urine 15 min after versus before, Mean±S.E.M.
# Method: as §1
# [3] = 3.0 μg/kg intravenous, anesthetized rats
# [4] = 30 μg/kg intravenous, anesthetized rats
# [5] = 90 μg/kg intravenous, anesthetized rats
# [6] = 200 μg/kg intravenous, anesthetized rats
molecule,measurement,setting,value
"α-hANP: A-type (atrial) natriuretic peptide used as comparison; activity set to 100 (SLRRSSCFGGRMDRIGAQSGLGCNSFRY; ends and bridges not checked; cysteine pairing not given here; UniProt P01160 124-151, looked up) [reference compound]",relative activity,"chicken rectum; relaxant activity of equimolar amount of peptides, activity of hANP = 100, averages of six repeats",100
same,decrease of blood pressure,Male SD rats [1]; [3],9.0 ± 2.5%
same,excretion Cl-,Male SD rats [2]; [3],362 + 34%
same,excretion K+,Male SD rats [2]; [3],220 ± 22%
same,excretion Na+,Male SD rats [2]; [3],461 ± 41%
same,excretion urine,Male SD rats [2]; [3],414 ± 46%
CC[C@H](C)[C@@H]1NC(=O)[C@H](CCCNC(=N)N)NC(=O)[C@H](CC(=O)O)NC(=O)[C@H](CC(C)C)NC(=O)[C@H](CCCCN)NC(=O)[C@H](C(C)C)NC(=O)CNC(=O)[C@H](Cc2ccccc2)NC(=O)[C@@H](NC(=O)[C@H](CO)NC(=O)[C@H](CCCNC(=N)N)NC(=O)[C@H](CO)NC(=O)[C@H](CC(C)C)NC(=O)CN)CSSC[C@@H](C(=O)O)NC(=O)CNC(=O)[C@H](CC(C)C)NC(=O)CNC(=O)[C@H](CO)NC(=O)[C@H](CCSC)NC(=O)[C@H](CO)NC(=O)CNC1=O [cCNP] (H-GLSRSCFGVKLDRIGSMSGLGC-OH; disulfide 6-22),relative activity,chicken rectum,321
same,relaxant activity higher than fANP-21 (fold),chicken rectum; cCNP versus fANP-21,~5 times
same,relaxant activity higher than α-hANP (fold),chicken rectum; cCNP versus α-hANP,about 2 times
same,decrease of blood pressure,Male SD rats [1]; [4],4.4 ± 1.9%
same,decrease of the blood pressure at the contract phase of heart,"Male SD rats [1]; 30 μg/kg, over a period of 30 min, typical experiment, anesthetized rats",about 5%
same,decrease of blood pressure,Male SD rats [1]; [5],0.3 ± 2.0%
same,decrease of blood pressure,Male SD rats [1]; [6],11.5 ± 1.5%
same,vasodepressor activity (in words),Male SD rats [1]; rats,weak vasodepressor action; also recorded: vasodepressor activity; also recorded: increase dose dependently
same,excretion Cl-,Male SD rats [2]; [4],171 ± 2%
same,excretion K+,Male SD rats [2]; [4],145 ± 12%
same,excretion Na+,Male SD rats [2]; [4],160 ± 9%
same,excretion urine,Male SD rats [2]; [4],153 ± 32%
same,excretion Cl-,Male SD rats [2]; [5],214 ± 5%
same,excretion K+,Male SD rats [2]; [5],163 ± 02%
same,excretion Na+,Male SD rats [2]; [5],193 ± 6%
same,excretion urine,Male SD rats [2]; [5],261 ± 19%
same,excretion Cl-,Male SD rats [2]; [6],338 ± 107%
same,excretion K+,Male SD rats [2]; [6],174 ± 18%
same,excretion Na+,Male SD rats [2]; [6],385 ± 50%
same,excretion urine,Male SD rats [2]; [6],293 ± 50%
same,diuretic and natriuretic actions compared to that of α-hANP,"Male SD rats [2]; anesthetized rats, ratio to α-hANP",about 1/100
same,natriuretic action (in words),Male SD rats [2]; rats,natriuretic action; also recorded: increase dose dependently
